Test results taken from patent US11572371B2, “BRD4 inhibitor” (HINOVA PHARMACEUTICALS INC., priority 2017, dated 2023).
Where two headings read alike, the source gives them in different places.

Tested on: CWR22RV1 cells
Experiment: Inhibition of CWR22RV1 cell proliferation (CCK-8)
Format: cell-based
Conditions: Homo sapiens, CWR22Rv1, 144 h, read-out: IC50 on CWR22RV1
Experimental: Test Example 2 Biological Determination of the Inhibitory Effect of the Compound on CWR22RV1 Cell Proliferation
Experimental Materials: • CWR22RV1 cell line (Cell bank of Chinese Academy of Sciences, TCHu100) • FBS (Gibco, Cat. No. 10099-141) • 0.01M PBS (Biosharp, Cat. No. 162262) • RIPM1640 (Hyclone, Cat. No. 308090.01) • Penicillin-Streptomycin (Hyclone, Cat. No. SV30010) • Cell counting kit-8(Signalway Antibody, Cat. No. CP002) • DMSO (Sigma, Cat. No. D5879) • Centrifuge Tube, 15 ml (Excell Bio, Cat. No. CS015-0001) • Cell Culture Dish, (Excell Bio, Cat. No. CS016-0128) • 96-well cell culture cluster (Corning, Cat. No. 3599)
(1) CWR22RV1 cells were subcultured with cell culture medium, and well-growth cells were inoculated in 96-well plates, with 80 μL per well. The number of cells in each well was 1500, and the plate was cultured overnight in a 37° C., 5% CO2 cell incubator.
(2) The drug was prepared as a 30 mM stock solution using dimethyl sulfoxide (DMSO). before use, the stock solution was diluted 3 times with DMSO, and then diluted by a 3 times gradient to obtain 9 concentration gradients. The compound at each concentration was further diluted 200 times with the culture solution (to ensure that the DMSO concentration in the culture system was 0.1%), and each concentration was repeated 2 wells. 20 μL of the diluted compound was added to the cell culture wells (with final concentrations of 10 μM, 3.3 μM, 1.1 μM . . . ), and gently shaked to mix. In addition, three negative control wells containing only cells and three blank control wells containing only culture medium (6 wells each containing 20 μL DMSO 200-fold diluted with culture medium) were set.
(1) After being cultured for 6 days, 10 μL CCK-8 was added to each well, and the cells were further cultured in a 5% CO2 cell incubator at 37° C. for 2.5 hours.
(2) The absorbance (OD value) was measured at 450 nm with a multifunctional microplate reader.
(3) The data were analyzed with the Dose-response-inhibition equation in the software GraphPad Prism6, and IC50 values were obtained.

Cc1sc2c(c1C)C(c1ccc(Cl)cc1)=N[C@@H](Cc1nnc(CCl)o1)c1nnc(C)n1-2 [Compound 4, (S)-2-chloromethyl-5-((4-(4-chlorophenyl)-2,3,9-trimethyl-6H-thieno[3,2-f][1,2,4]triazolo[4,3-a][1,4]diaza-6-yl)methyl)-1,3,4-oxodiazole]
IC50 (cultured for 6 days, CCK-8): 28 nM

COCc1nnc(C[C@@H]2N=C(c3ccc(Cl)cc3)c3c(sc(C)c3C)-n3c(C)nnc32)o1 [Compound 5, (S)-2-((4-(4-chlorophenyl)-2,3,9-trimethyl-6H-thieno[3,2-f][1,2,4]triazolo[4,3-a][1,4]diaza-6-yl)methyl)-5-(methoxylmethyl)-1,3,4-oxodiazole]
IC50 (cultured for 6 days, CCK-8): 45 nM

Cc1sc2c(c1C)C(c1ccc(Cl)cc1)=N[C@@H](Cc1nnc(CO)o1)c1nnc(C)n1-2 [Compound 7, (S)-(5-((4-(4-chlorophenyl)-2,3,9-trimethyl-6H-thieno[3,2-f][1,2,4]triazolo[4,3-a][1,4]diaza-6-yl)methyl)-1,3,4-oxodiazole-2-yl)methanol]
IC50: 89 nM

CC(=O)NCc1nnc(C[C@@H]2N=C(c3ccc(Cl)cc3)c3c(sc(C)c3C)-n3c(C)nnc32)o1 [Compound 9, (S)-N-((5-((4-(4-chlorophenyl)-2,3,9-trimethyl-6H-thieno[3,2-f][1,2,4]triazolo[4,3-a][1,4]diaza-6-yl)methyl)-1,3,4-oxodiazole-2-yl)methyl)acetylamine]
IC50 (cultured for 6 days, CCK-8): 110 nM

Cc1sc2c(c1C)C(c1ccc(Cl)cc1)=N[C@@H](Cc1nnc(CNS(C)(=O)=O)o1)c1nnc(C)n1-2 [Compound 10, (S)-N-((5-((4-(4-chlorophenyl)-2,3,9-trimethyl-6H-thieno[3,2-f][1,2,4]triazolo[4,3-a][1,4]diaza-6-yl)methyl) -1,3,4-oxodiazole-2-yl)methyl) methanesulfonamide]
IC50 (cultured for 6 days, CCK-8): 63 nM

C=CC(=O)NCc1nnc(C[C@@H]2N=C(c3ccc(Cl)cc3)c3c(sc(C)c3C)-n3c(C)nnc32)o1 [Compound 11, (S)-N-((5-((4-(4-chlorophenyl)-2,3,9-trimethyl-6H-thieno[3,2-f][1,2,4]triazolo[4,3-a][1,4]diaza-6-yl)methyl)-1,3,4-oxodiazole-2-yl)methyl)acrylamide]
IC50 (cultured for 6 days, CCK-8): 54 nM

Cc1sc2c(c1C)C(c1ccc(Cl)cc1)=N[C@@H](Cc1nnc(CN3CCS(=O)(=O)CC3)o1)c1nnc(C)n1-2 [Compound 12, (S)-4-((5-((4-(4-chlorophenyl)-2,3,9-trimethyl-6H-thieno[3,2-f] [1,2,4]triazolo[4,3-a][1,4]diaza-6-yl)methyl)-1,3,4-oxodiazole-2-yl)methyl)thiomorpholine 1,1-dioxide]
IC50 (cultured for 6 days, CCK-8): 110 nM

Cc1sc2c(c1C)C(c1ccc(Cl)cc1)=N[C@@H](Cc1nnc(CNCCO)o1)c1nnc(C)n1-2 [Compound 14, (S)-2-(((5-((4-(4-chlorophenyl)-2,3,9-trimethyl-6H-thieno[3,2-f][1,2,4]triazolo[4,3-a][1,4]diaza-6-yl)methyl)-1,3,4-oxodiazole-2-yl)methyl)amino)ethanol]
IC50 (cultured for 6 days, CCK-8): 163 nM

COC(=O)C1CCN(Cc2nnc(C[C@@H]3N=C(c4ccc(Cl)cc4)c4c(sc(C)c4C)-n4c(C)nnc43)o2)CC1 [Compound 15, (S)-methyl-1-((5-((4-(4-chlorophenyl)-2,3,9-trimethyl-6H-thieno[3,2-f][1,2,4]triazolo[4,3-a][1,4]diaza-6-yl)methyl) -1,3,4-oxodiazole-2-yl)methyl)piperidin-4-carboxylic ester]
IC50 (cultured for 6 days, CCK-8): 59 nM

Cc1sc2c(c1C)C(c1ccc(Cl)cc1)=N[C@@H](Cc1nnc(CN3CCC(C(=O)O)CC3)o1)c1nnc(C)n1-2 [Compound 16, (5)-1-((5-((4-(4-chlorophenyl)-2,3,9-trimethyl-6H-thieno[3,2-f][1,2,4]triazolo[4,3-a][1,4]diaza-6-yl)methyl)-1,3,4-oxodiazole-2-yl)methyl)piperidin-4-carboxylic acid]
IC50 (cultured for 6 days, CCK-8): 2650 nM

Cc1sc2c(c1C)C(c1ccc(Cl)cc1)=N[C@@H](Cc1nnc(CN3CC(C(=O)O)C3)o1)c1nnc(C)n1-2 [Compound 17, (5)-1-((5-((4-(4-chlorophenyl)-2,3,9-trimethyl-6H-thieno[3,2-f][1,2,4]triazolo[4,3-a][1,4]diaza-6-yl)methyl)-1,3,4-oxodiazole-2-yl)methyl)azacyclobutane-3-carboxylic acid]
IC50 (cultured for 6 days, CCK-8): 2380 nM

Cc1sc2c(c1C)C(c1ccc(Cl)cc1)=N[C@@H](Cc1nnc(CN3CC(O)C3)o1)c1nnc(C)n1-2 [Compound 18, (5)-1-((5-((4-(4-chlorophenyl)-2,3,9-trimethyl-6H-thieno[3,2-f][1,2,4]triazolo[4,3-a][1,4]diaza-6-yl)methyl)-1,3,4-oxodiazole-2-yl)methyl)azacyclobutane-3-ol]
IC50 (cultured for 6 days, CCK-8): 89 nM

Cc1nnc(C[C@@H]2N=C(c3ccc(Cl)cc3)c3c(sc(C)c3C)-n3c(C)nnc32)o1 [Compound 21, (S)-2-((4-(4-chlorophenyl)-2,3 ,9-trimethyl-6H-thieno[3,2-f][1,2,4]triazolo[4,3-a][1,4]diaza-6-yl)methyl)-5-methyl-1,3,4-oxodiazole]
IC50: 33 nM

Cc1sc2c(c1C)C(c1ccc(Cl)cc1)=N[C@@H](Cc1nnc(C(C)(C)C)o1)c1nnc(C)n1-2 [Compound 23, (S)-2-(t-butyl)-5-((4-(4-chlorophenyl)-2,3,9-trimethyl-6H-thieno[3,2-f][1,2,4]triazolo[4,3-a][1,4]diaza-6-yl)methyl) -1,3,4-oxodiazole]
IC50: 179 nM

Cc1sc2c(c1C)C(c1ccc(Cl)cc1)=N[C@@H](Cc1nncn1C(C)C)c1nnc(C)n1-2 [Compound 25, (S)-4-(4-chlorophenyl)-6-((4-isopropyl-4H-1,2,4--3-yl)methyl)-2,3,9-trimethyl-6H-thieno[3,2-f][1,2,4]triazolo[4,3-a][1,4]diazepine]
IC50: 1310 nM

Cc1sc2c(c1C)C(c1ccc(Cl)cc1)=N[C@@H](Cc1nc(CCl)co1)c1nnc(C)n1-2 [Compound 27, 2-(4-(4-chlorophenyl)-2,3,9-trimethyl-6H-thieno[3,2-f][1,2,4]triazolo[4,3-a][1,4]diaza-6-yl)-4-chloromethyloxazole]
IC50: 29 nM

Cc1noc(C[C@@H]2N=C(c3ccc(Cl)cc3)c3c(sc(C)c3C)-n3c(C)nnc32)n1 [Compound 30, (S)-5-((4-(4-chlorophenyl)-2,3,9-trimethyl-6H-thieno[3,2-f][1,2,4]triazolo[4,3-a][1,4]diaza-6-yl)methyl)-3-methyl-1,2,4-oxodiazole]
IC50 (cultured for 6 days, CCK-8): 47 nM
